In assay [1] the target is T1, Serine/threonine-protein kinase haspin (Homo sapiens, UniProt Q8TF76).
T1 sequence (Q8TF76 whole entry): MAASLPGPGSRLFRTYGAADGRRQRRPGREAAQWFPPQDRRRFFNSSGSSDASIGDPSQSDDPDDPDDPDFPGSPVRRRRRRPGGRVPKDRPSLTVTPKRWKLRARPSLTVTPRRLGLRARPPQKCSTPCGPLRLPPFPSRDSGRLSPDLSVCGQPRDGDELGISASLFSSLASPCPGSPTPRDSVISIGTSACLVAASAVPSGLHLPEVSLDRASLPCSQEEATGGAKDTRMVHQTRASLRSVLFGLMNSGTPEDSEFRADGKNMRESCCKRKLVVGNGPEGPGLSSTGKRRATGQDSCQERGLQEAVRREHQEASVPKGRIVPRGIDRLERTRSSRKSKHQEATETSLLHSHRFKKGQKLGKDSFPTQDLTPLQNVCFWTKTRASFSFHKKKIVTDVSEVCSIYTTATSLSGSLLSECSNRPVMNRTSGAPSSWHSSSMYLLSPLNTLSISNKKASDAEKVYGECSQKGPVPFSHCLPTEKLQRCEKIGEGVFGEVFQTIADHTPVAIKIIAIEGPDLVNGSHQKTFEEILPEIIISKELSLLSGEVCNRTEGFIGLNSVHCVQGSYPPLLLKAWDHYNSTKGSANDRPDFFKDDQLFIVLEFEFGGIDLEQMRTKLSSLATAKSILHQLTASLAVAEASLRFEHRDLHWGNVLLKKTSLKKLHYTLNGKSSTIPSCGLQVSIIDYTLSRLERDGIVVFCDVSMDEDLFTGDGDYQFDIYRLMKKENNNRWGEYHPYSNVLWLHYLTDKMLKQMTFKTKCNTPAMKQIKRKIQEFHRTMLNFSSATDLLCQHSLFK
In words: Inhibition of recombinant human Haspin kinase domain (470 to 798 residues) expressed in bacteria using histone H3 (1 to 21) peptide as substrate incubated for 30 mins in presence of ATP by ADP-Glo kinase assay. (ADP-Glo turns the ADP formed in a reaction into a luminescent signal.)

For assay [2], the target named is Dual specificity protein kinase CLK1 (Mus musculus) (UniProt P22518). The assay can be described thus: Inhibition of recombinant mouse CLK1 expressed in bacteria assessed as enzyme residual activity using GRSRSRSRSRSR as substrate at 10 uM incubated for 30 mins in presence of ATP by ADP-Glo kinase assay.
Assay [3] shares this target. In words: Inhibition of recombinant mouse CLK1 expressed in bacteria assessed as enzyme residual activity using GRSRSRSRSRSR as substrate at 1 uM incubated for 30 mins in presence of ATP by ADP-Glo kinase assay.
Assay [4] addresses Dual specificity protein kinase CLK1 (Mus musculus, UniProt P22518). The assay can be described thus: Inhibition of recombinant mouse CLK1 expressed in bacteria using GRSRSRSRSRSR as substrate incubated for 30 mins in presence of ATP by ADP-Glo kinase assay.
The target in assay [5] is Dual specificity tyrosine-phosphorylation-regulated kinase 1A (Rattus norvegicus) (UniProt Q63470). The assay can be described thus: Inhibition of recombinant rat DYRK1A kinase domain (1 to 499 residues) expressed in bacteria assessed as enzyme residual activity using KKISGRLSPIMTEQ as substrate at 10 uM incubated for 30 mins in presence of ATP by ADP-Glo kinase assay.

Assay [6] shares this target. In words: Inhibition of recombinant rat DYRK1A kinase domain (1 to 499 residues) expressed in bacteria assessed as enzyme residual activity using KKISGRLSPIMTEQ as substrate at 1 uM incubated for 30 mins in presence of ATP by ADP-Glo kinase assay.
For assay [7], the target named is Dual specificity tyrosine-phosphorylation-regulated kinase 1A (Rattus norvegicus, UniProt Q63470). In words: Inhibition of recombinant rat DYRK1A kinase domain (1 to 499 residues) expressed in bacteria using KKISGRLSPIMTEQ as substrate incubated for 30 mins in presence of ATP by ADP-Glo kinase assay.
Assay [8] has as its target T2, CDK9/cyclin T1 (Homo sapiens) (UniProt O60563+P50750). The assay can be described thus: Inhibition of human recombinant CDK9/cyclin T expressed in baculovirus-infected Sf9 cells assessed as enzyme residual activity using YSPTSPSYSPTSPSYSPTSPSKKKK as substrate at 10 uM incubated for 30 mins in presence of ATP by ADP-Glo kinase assay.
Assay [9] has as its target T2, CDK9/cyclin T1 (Homo sapiens). In words: Inhibition of human recombinant CDK9/cyclin T expressed in baculovirus-infected Sf9 cells assessed as enzyme residual activity using YSPTSPSYSPTSPSYSPTSPSKKKK as substrate at 1 uM incubated for 30 mins in presence of ATP by ADP-Glo kinase assay.
Assay [10] deals with Glycogen synthase kinase-3 beta (Homo sapiens) (UniProt P49841). In words: Inhibition of human recombinant GSK-3 beta expressed in baculovirus-infected Sf9 cells assessed as enzyme residual activity using YRRAAVPPSPSLSRHSSPHQSpEDEEE as substrate at 10 uM incubated for 30 mins in presence of ATP by ADP-Glo kinase assay.
For assay [11] the target is unchanged. The assay can be described thus: Inhibition of human recombinant GSK-3 beta expressed in baculovirus-infected Sf9 cells assessed as enzyme residual activity using YRRAAVPPSPSLSRHSSPHQSpEDEEE as substrate at 1 uM incubated for 30 mins in presence of ATP by ADP-Glo kinase assay.
In assay [12] the target is Casein kinase I isoform epsilon (Homo sapiens) (UniProt P49674). In words: Inhibition of human recombinant CK1 epsilon expressed in baculovirus-infected Sf9 cells assessed as enzyme residual activity using RRKHAAIGSpAYSITA as substrate at 10 uM incubated for 30 mins in presence of ATP by ADP-Glo kinase assay.
Assay [13] shares this target. The assay can be described thus: Inhibition of human recombinant CK1 epsilon expressed in baculovirus-infected Sf9 cells assessed as enzyme residual activity using RRKHAAIGSpAYSITA as substrate at 1 uM incubated for 30 mins in presence of ATP by ADP-Glo kinase assay.
Assay [14] has as its target T3, Cyclin-dependent kinase 5/CDK5 activator 1 (Homo sapiens) (UniProt Q00535+Q15078). In words: Inhibition of human recombinant CDK5/p25 expressed in bacteria assessed as enzyme residual activity using histone H1 as substrate at 10 uM incubated for 30 mins in presence of ATP by ADP-Glo kinase assay.
The target in assay [15] is T3, Cyclin-dependent kinase 5/CDK5 activator 1 (Homo sapiens). The assay can be described thus: Inhibition of human recombinant CDK5/p25 expressed in bacteria assessed as enzyme residual activity using histone H1 as substrate at 1 uM incubated for 30 mins in presence of ATP by ADP-Glo kinase assay.
In assay [16] the target is T4, Serine/threonine-protein kinase pim-1 (Homo sapiens, UniProt P11309). In words: Inhibition of human recombinant PIM-1 expressed in bacteria assessed as enzyme residual activity using histone H1 as substrate at 10 uM incubated for 30 mins in presence of ATP by ADP-Glo kinase assay.
Target sequence in this assay (P11309 whole entry, looked up): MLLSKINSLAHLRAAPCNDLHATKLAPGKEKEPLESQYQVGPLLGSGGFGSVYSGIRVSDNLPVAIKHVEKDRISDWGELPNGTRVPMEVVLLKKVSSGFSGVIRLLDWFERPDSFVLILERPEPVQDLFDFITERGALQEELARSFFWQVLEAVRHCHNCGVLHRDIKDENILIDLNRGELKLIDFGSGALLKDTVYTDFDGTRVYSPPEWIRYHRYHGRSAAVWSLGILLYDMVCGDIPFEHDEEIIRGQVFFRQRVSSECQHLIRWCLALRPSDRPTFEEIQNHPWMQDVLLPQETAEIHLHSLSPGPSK
Assay [17] concerns the target T4, Serine/threonine-protein kinase pim-1. The assay can be described thus: Inhibition of human recombinant PIM-1 expressed in bacteria assessed as enzyme residual activity using histone H1 as substrate at 1 uM incubated for 30 mins in presence of ATP by ADP-Glo kinase assay.
Target sequence in this assay (P11309 whole entry, looked up): as above
The target is the same in assay [18]. In words: Inhibition of human recombinant PIM-1 expressed in bacteria using histone H1 as substrate incubated for 30 mins in presence of ATP by ADP-Glo kinase assay.
Target sequence in this assay (P11309 whole entry): as the sequence (P11309 whole entry, looked up) above
A short description of assay [19]: Selectivity index, ratio of IC50 for recombinant mouse CLK1 expressed in bacteria to IC50 for recombinant human Haspin kinase domain (470 to 798 residues) expressed in bacteria.
Assay [20] has as its target CDK9/cyclin T1 (Homo sapiens, UniProt P50750). The assay can be described thus: Inhibition of human recombinant CDK9/cyclin T expressed in baculovirus-infected Sf9 cells using YSPTSPSYSPTSPSYSPTSPSKKKK as substrate incubated for 30 mins in presence of ATP by ADP-Glo kinase assay.
Assay [21] is filed under the species Homo sapiens. In words: Selectivity index, ratio of IC50 for human recombinant CDK9/cyclin T expressed in baculovirus-infected Sf9 cells to IC50 for recombinant human Haspin kinase domain (470 to 798 residues) expressed in bacteria.
Assay [22] concerns U2OS. The assay can be described thus: Induction of cell cycle arrest in human U2OS cells assessed as proportion of cells at G1 phase at 2.5 uM incubated for 24 hrs by flow cytometry (reference value: 45%). Type of assay: functional. (In flow cytometry, cells or beads pass a laser one at a time.)
The test system of assay [23] is U2OS. In words: Induction of cell cycle arrest in human U2OS cells assessed as proportion of cells at S phase at 2.5 uM incubated for 24 hrs by flow cytometry (reference value: 39%). Type of assay: functional.
The test system of assay [24] is U2OS. In words: Induction of cell cycle arrest in human U2OS cells assessed as proportion of cells at G2/M phase at 2.5 uM incubated for 24 hrs by flow cytometry (reference value: 16%). Type of assay: functional.
For assay [25], the system named is U2OS. In words: Induction of cell cycle arrest in human U2OS cells assessed as proportion of cells at G1 phase at 5 uM incubated for 24 hrs by flow cytometry (reference value: 45%). Type of assay: functional.
The test system of assay [26] is U2OS. The assay can be described thus: Induction of cell cycle arrest in human U2OS cells assessed as proportion of cells at S phase at 5 uM incubated for 24 hrs by flow cytometry (reference value: 39%). Type of assay: functional.
Assay [27] deals with U2OS. In words: Induction of cell cycle arrest in human U2OS cells assessed as proportion of cells at G2/M phase at 5 uM incubated for 24 hrs by flow cytometry (reference value: 16%). Type of assay: functional.
Assay [28] has as its system TERT-RPE1. The assay can be described thus: cells. To be noted: Homo sapiens, RPE-1, 48 h.
Description: Cytotoxicity against human TERT-RPE1 cells assessed as reduction in cell viability incubated for 48 hrs by MTS assay
Assay [29] relates to HBL-100. The assay can be described thus: cells. To be noted: Homo sapiens, HBL-100, 48 h.
Description: Antiproliferative activity against human HBL-100 cells assessed as reduction in cell viability incubated for 48 hrs by MTS assay
Assay [30] relates to HCT-116. In words: cells. To be noted: Homo sapiens, HCT-116, 48 h.
Description: Antiproliferative activity against human HCT-116 cells assessed as reduction in cell viability incubated for 48 hrs by MTS assay
The subject of assay [31] is SH-SY5Y. The assay can be described thus: cells. To be noted: Homo sapiens, 48 h.
Description: Antiproliferative activity against human SH-SY5Y cells assessed as reduction in cell viability incubated for 48 hrs by MTS assay
Assay [32] relates to U2OS. The assay can be described thus: cells. To be noted: Homo sapiens, 48 h.
Description: Antiproliferative activity against human U2OS cells assessed as reduction in cell viability incubated for 48 hrs by MTS assay

The IC50 is the midpoint of a concentration-inhibition curve. A word on the EC50: it is the midpoint of the concentration-response curve.

Dual specificity protein kinase CLK1 (Mus musculus), sequence (P22518 whole entry, looked up): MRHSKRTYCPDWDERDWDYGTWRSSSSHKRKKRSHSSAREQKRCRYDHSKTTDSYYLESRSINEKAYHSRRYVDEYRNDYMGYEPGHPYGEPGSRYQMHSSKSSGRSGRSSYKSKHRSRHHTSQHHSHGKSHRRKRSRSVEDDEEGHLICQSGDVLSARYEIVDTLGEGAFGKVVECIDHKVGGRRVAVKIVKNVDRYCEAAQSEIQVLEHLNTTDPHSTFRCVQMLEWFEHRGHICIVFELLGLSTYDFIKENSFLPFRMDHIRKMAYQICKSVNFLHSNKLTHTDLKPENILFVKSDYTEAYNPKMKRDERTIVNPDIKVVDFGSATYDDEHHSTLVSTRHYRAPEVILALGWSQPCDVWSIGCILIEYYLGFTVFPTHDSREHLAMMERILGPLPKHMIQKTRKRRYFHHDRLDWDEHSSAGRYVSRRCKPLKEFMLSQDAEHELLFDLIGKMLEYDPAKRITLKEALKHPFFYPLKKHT
Dual specificity protein kinase CLK1, sequence (P22518 whole entry, the tested form may be a part): as the sequence (P22518 whole entry, looked up) above
T3 sequence (Q00535 whole entry): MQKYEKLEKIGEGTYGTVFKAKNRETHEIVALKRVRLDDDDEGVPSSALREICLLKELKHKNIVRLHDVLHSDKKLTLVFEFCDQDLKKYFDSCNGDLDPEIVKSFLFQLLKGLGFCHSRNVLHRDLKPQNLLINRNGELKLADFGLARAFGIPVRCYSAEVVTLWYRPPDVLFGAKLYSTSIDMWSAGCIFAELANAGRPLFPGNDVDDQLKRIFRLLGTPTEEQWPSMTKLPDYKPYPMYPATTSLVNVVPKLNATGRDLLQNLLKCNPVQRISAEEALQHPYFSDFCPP
T3 sequence (Q15078 99-307 partner limits assumed): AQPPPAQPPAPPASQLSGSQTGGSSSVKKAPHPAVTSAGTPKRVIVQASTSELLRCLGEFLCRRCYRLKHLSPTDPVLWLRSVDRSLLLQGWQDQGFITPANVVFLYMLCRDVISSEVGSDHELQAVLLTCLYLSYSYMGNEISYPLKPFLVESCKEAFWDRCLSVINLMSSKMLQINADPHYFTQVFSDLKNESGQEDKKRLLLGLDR
Glycogen synthase kinase-3 beta (Homo sapiens), sequence (P49841 whole entry, looked up): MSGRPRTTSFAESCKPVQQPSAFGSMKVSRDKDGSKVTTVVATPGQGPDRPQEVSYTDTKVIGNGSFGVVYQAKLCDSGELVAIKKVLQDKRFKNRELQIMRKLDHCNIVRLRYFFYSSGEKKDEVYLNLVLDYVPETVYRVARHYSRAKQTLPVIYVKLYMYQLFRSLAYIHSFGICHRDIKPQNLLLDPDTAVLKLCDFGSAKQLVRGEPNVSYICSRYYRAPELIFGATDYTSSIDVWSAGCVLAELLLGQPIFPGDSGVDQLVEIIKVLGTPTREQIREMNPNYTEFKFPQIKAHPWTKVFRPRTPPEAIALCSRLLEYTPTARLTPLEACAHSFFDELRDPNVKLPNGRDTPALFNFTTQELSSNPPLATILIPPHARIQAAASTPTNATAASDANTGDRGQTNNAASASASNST
Casein kinase I isoform epsilon (Homo sapiens), sequence (P49674 whole entry, looked up, canonical isoform): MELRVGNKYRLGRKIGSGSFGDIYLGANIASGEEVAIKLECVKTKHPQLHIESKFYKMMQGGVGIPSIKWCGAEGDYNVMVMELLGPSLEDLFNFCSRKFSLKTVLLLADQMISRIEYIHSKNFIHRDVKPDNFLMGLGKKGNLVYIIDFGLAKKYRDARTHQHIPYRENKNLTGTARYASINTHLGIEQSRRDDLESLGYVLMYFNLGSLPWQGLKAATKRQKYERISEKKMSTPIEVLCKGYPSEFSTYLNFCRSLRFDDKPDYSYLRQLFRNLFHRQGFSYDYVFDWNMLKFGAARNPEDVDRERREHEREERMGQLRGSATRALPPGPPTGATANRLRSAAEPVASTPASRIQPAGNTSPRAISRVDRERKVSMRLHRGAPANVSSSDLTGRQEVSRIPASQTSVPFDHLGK
CDK9/cyclin T1, sequence (O60563 whole entry, the tested form may be a part): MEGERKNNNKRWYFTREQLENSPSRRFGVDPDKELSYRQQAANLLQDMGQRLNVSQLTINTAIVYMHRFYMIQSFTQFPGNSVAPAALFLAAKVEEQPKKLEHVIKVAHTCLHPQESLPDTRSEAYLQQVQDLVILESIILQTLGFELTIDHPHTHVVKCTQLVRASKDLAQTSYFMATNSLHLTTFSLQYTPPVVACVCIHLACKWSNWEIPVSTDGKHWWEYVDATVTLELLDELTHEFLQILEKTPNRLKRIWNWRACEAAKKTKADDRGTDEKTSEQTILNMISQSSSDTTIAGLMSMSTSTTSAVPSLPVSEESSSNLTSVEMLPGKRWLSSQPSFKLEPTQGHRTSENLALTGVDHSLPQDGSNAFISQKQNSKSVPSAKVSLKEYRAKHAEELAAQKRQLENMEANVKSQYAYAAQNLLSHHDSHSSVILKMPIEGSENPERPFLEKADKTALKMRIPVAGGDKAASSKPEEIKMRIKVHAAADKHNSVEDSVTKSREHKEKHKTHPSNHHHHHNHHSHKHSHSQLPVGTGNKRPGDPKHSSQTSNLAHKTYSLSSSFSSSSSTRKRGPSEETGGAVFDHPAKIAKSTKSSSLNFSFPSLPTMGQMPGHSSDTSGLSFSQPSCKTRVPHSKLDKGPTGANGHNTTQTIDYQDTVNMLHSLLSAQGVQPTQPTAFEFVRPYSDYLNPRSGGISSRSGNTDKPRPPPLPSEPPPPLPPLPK
CDK9/cyclin T1, sequence (P50750 whole entry, the tested form may be a part): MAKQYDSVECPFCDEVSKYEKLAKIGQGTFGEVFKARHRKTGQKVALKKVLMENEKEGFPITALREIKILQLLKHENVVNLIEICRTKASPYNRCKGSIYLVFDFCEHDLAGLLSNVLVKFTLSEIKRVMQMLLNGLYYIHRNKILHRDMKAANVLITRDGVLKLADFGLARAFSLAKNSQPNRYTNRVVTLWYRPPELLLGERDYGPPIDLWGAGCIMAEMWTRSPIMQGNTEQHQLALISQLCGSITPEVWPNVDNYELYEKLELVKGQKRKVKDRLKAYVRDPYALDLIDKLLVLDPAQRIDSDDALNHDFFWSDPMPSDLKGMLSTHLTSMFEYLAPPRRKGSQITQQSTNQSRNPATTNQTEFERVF

For the compound `Nc1nccc(-c2c[nH]c3cc4cnccc4cc23)n1`, the 50% inhibitory concentration (IC50) came to 122 nM in [1], 205 nM in [4], 560 nM in [7] and 225 nM in assay [18]. Besides, the Activity was 5% in assay [2]; 16% in assay [3]; 0% in [5]; 25% in assay [6]; 16% in [8]; 56% in [9]. Moreover, the Activity is 35% in [10]; 76% in assay [11]; 10% in assay [12]; 46% in assay [13]; 21% in assay [14]; 79% in assay [15]. In addition, the Activity in [16] was 4%; in assay [17], 20%. In addition, the Ratio IC50 in assay [19] came to 1.7.
`N#Cc1c[nH]c2cc3cnccc3cc12`: the IC50 in assay [1] was 75 nM; in assay [4] it was 360 nM; in assay [7], 182 nM; in assay [20], 178 nM. Also, the Activity in assay [2] worked out at 0%; in assay [3] it was 19%; in [5] it was 5%; in assay [6] it was 38%; in assay [8] it was 6%; in assay [9], 34%. The Activity in assay [10] turned out to be 26%; in [11] it was 59%; in assay [12], 47%; in [13], 92%; in assay [14] it was 34%; in assay [15] it was 69%. Further, the Activity in assay [16] is 95%; in [17] it was 100%. Also, the Ratio IC50 in assay [21] came out at 2.4.
As to `CCn1ncc2cc3cnccc3c(N)c21`, the Activity in assay [2] was determined as 8%; in assay [3] it was 34%; in assay [5], 6%; in assay [6], 23%; in [8], 50%; in assay [9], 80%. Besides, the Activity was determined as 42% in [10]; 82% in [11]; 48% in [12]; 84% in [13]; 28% in assay [14]; 65% in [15]. The Activity in assay [16] stood at 60%; in [17], 91%; in assay [22], 44%; in assay [23] it was 40%; in [24], 16%; in assay [25], 32%. Moreover, the Activity was 43% in assay [26] and 25% in [27]. Moreover, the EC50 in assay [28] worked out at 300 nM; in [29], 7300 nM; in assay [30], 1200 nM; in [31] it was 1200 nM; in assay [32] it was 2700 nM.
For `O=Cc1c[nH]c2cc3cnccc3cc12`, the IC50 in [1] was 158 nM; in assay [4] it was 182 nM; in assay [7] it was 495 nM; in [20], 151 nM. For the same compound, the Activity in assay [2] stood at 26%; in assay [3] it was 53%; in assay [5], 7%; in assay [6] it was 21%; in [8] it was 7%; in assay [9], 7%. Further, the Activity in [10] was determined as 23%; in [11], 55%; in assay [12] it was 34%; in assay [13], 80%; in [14], 57%; in assay [15] it was 84%. In addition, the Activity in [16] was 33%; in [17] it was 64%. The Ratio IC50 in assay [21] turned out to be 0.96.

The record behind these values is ChEMBL document CHEMBL5550090, “Synthesis and biological evaluation of 1H-pyrrolo[3,2-g]isoquinolines” (Bioorg Med Chem, 2024).
